Test results from US20130251632A1, “APOPTOSIS PET IMAGING AGENTS” (GE HEALTHCARE LIMITED, priority 2010, published 2013).

Test: Affinity for phosphatidylethanolamine, Biacore 3000 with L1 chip and captured liposomes
Type: binding
Details: POPE/POPC liposomes (20% PE)
Source text: A Biacore 3000 (GE Healthcare, Uppsala) was equipped with an L1 chip. Liposomes made of POPE/POPC (20% PE) were applied for the affinity study using the capture technique recommended by the manufacturer. Each run consisted of activation of the chip surface, immobilization of liposomes, binding of peptide and wash off of both liposomes and peptide (regeneration). Similar applications can be found in Frostell-Karlsson et al [Pharm. Sciences, V.94 (1), (2005)]. Thorough washing of needle, tubing and liquid handling system with running buffer was performed after each cycle.
BIACORE software: The BIACORE control software including all method instructions was applied. A method with commands was also written in the BIACORE Method Definition Language (MDL) to have full control over pre-programmed instructions. BIACORE evaluation software was applied for analysing the sensorgrams.

duramycin
ka: ~20000 M⁻¹ s⁻¹
